How the values were obtained:
ER = details: compared to BP3; cited from earlier work
TFF1 = experiment: RT-qPCR of estrogen-responsive gene TFF1 in T47D cells; format: cell-based, human; details: fulvestrant 1 μM with 10 nM E2, T47D
Method: RT-qPCR: RNA from T47D cells, MCF-7 Cells or flash-frozen 4th mammary gland was isolated with TRIzol (Thermofisher Scientific #15596018) and Direct-zol RNA MiniPrep Plus (Zymo Research #R2072). cDNA was prepared with Protoscript II First Strand cDNA Synthesis Kit (New England Biolabs #E6560S) and qPCR for TFF1, progesterone receptor (PGR) and Amphiregulin (AREG) was performed on CFX96 Real-Time System thermocycler (Bio-Rad) using primers in Table 1.

T47D cells = experiment: γH2AX immunostaining (DNA damage) in T47D cells; format: cell-based, human
Method: Immunostaining: Cells were grown in clearing media for 48 h and plated on 20 mm coverslip in 12 well plates with a density of 2×10^5 cells/well. […] Cells were washed with 1×PBS, blocked in 2% BSA/PBS with 0.1% Triton-X 100 for 1 hr at room temperature (RT), incubated overnight with γH2AX antibody (Cell Signaling #9718 S) or ERα antibody (Santa Cruz Biotechnology #sc-8002) at 4° C. and 1 hour with secondary antibody. S9.6: Cells were fixed in ice-cold 100% methanol for 10 min at −20° C., permeabilized in 100% acetone for 1 min at RT, blocked for 30 min in saline sodium citrate pH 7 (SSC, 4×), 3% BSA, 0.1% Triton-X and incubated with S9.6 (Kerafast #ENH001) 2 hr at RT followed by 1 h with secondary antibody. If indicated, slides were treated with RNase H (NEB #M0297L) for 4 hr at 37° C. prior to incubation with primary antibody. Stained cells were mounted with Vectashield mounting medium containing DAPI (Vector Laboratories #H-1200). Slides were imaged at 60× (immersion oil) with Nikon A1 Spectral Confocal microscope. Analysis of γH2AX and S9.6 intensity per nucleus or foci per nucleus was calculated using Nikon analysis software, where DAPI was used as a mask for the nucleus.

SMILES	ER transactivation potential (ER)	effect on transcriptional responses (TFF1) to E2 (TFF1)	effect on E2-induced γH2AX intensity (T47D cells; fulvestrant 1 μM with 10 nM E2, T47D)	effect on γH2AX intensity in response to 5 μM BP3 and 5 μM PP (T47D cells; fulvestrant 1 μM, T47D)
O=C(c1ccccc1)c1ccc(O)cc1O [2,4-diOH-BP]	higher ER transactivation potential compared to BP3	–	–	–
C[C@]12CC[C@@H]3c4ccc(O)cc4C[C@@H](CCCCCCCCC[S+]([O-])CCCC(F)(F)C(F)(F)F)[C@H]3[C@@H]1CC[C@@H]2O (stereo partly shown) [fulvestrant]	–	blocked	significantly reduced	inhibited
